Source: patent publication US20260199213A1, “PEPTIDE HAVING ACTIVITY OF IMPROVING STATE OF SKIN, AND USE THEREOF” (CAREGEN CO., LTD., priority 2022, published 2026)

Assays:
Format in all cases: cell-based
sirtuin-1 (SIRT-1) = test: SIRT-1 expression by RT-PCR in HaCaT cells; settings: 10 μM, 50 μM or 1000 μM peptide, 24 hours
Procedure: In this example, the aim was to confirm the effect of the peptides according to an example on strengthening the skin barrier, by evaluating the expression levels of sirtuin-1 (SIRT-1) or aquaporin-3 (AQP3).
Specifically, HaCaT cells were seeded in a 6-well plate at a density of 3×10^5 cells/well and cultured for 24 hours. Next, the cells were washed once with serum-free DMEM media, and 10 μM, 50 μM or 1000 μM of the peptide consisting of the amino acid sequence of SEQ ID NO: 1 was dispensed into 1 mL of the serum-free media, and cultured in a CO2 incubator at 37° C. for 24 hours. Next, the culture was washed twice with PBS, and RNA was isolated from the culture using easy blue (iNtRON, Cat. No.: 17061, Korea). Next, using an RT kit (Enzynomics, Cat. NO.: RT200, Korea), the isolated RNA was reverse transcribed to synthesize the respective cDNA. Next, using the synthesized 1 ug cDNA, primers for SIRT-1 or AQP3, and a PCR kit (Enzynomics, Cat. No.: P581T, Korea), polymerase chain reaction (PCR) was performed. Meanwhile, in this example, an untreated group was used as the control group, and a group to which EGF was added was used as a positive control group, the nucleotide sequences of the primers used in this example are shown in Table 3 below.

elastin = test: Elastin expression by RT-PCR in NIH3T3 cells
Procedure: (§1) In this example, the aim was to confirm the effect of the peptide according to an example on improving endogenous skin aging, including improvement of wrinkles and enhancement of elasticity, etc., by evaluating the expression levels of collagen type 1 (Col1a1), fibronectin, elastin, and hyaluronic acid, which are known components of the dermis.
(§2) Specifically, NIH3T3 cells were seeded in a 6-well plate at a density of 3×10^5 cells/well and cultured for 24 hours. Next, the cells were washed once with serum-free DMEM media, and 10 μM, 50 μM or 1000 μM of a peptide consisting of an amino acid sequence of SEQ ID NO: 1 was dispensed into 1 mL of the serum-free media, and cultured in a CO2 incubator at 37° C. for 24 hours. Next, the culture was washed twice with PBS, and RNA was isolated from the culture using easy blue (iNtRON, Cat. No.: 17061, Korea). Next, using an RT kit (Enzynomics, Cat. NO.: RT200, Korea), the isolated RNA was reverse transcribed to synthesize the respective cDNA. Next, using the synthesized 1 ug cDNA, primers for Colla1, fibronectin, or elastin, and a PCR kit (Enzynomics, Cat. No.: P581T, Korea), polymerase chain reaction (PCR) was performed. Meanwhile, in this example, an untreated group was used as a control group, and a group to which TGF-31 was added was used as a positive control group, the nucleotide sequences of the primers used in this example are shown in Table 2 below.
In this example, the aim was to more specifically compare the effects of peptides according to an embodiment on improving intrinsic skin aging. To this end, a peptide consisting of an amino acid sequence of SEQ ID NO: 2, 3, or 4 having a sequence similar to a peptide according to an embodiment was set as a comparison group, and the expression levels of fibronectin and elastin were evaluated and compared in the same manner as in Example 2-1. […]

[1] = tested on: reactive oxygen species in HaCaT cells; test: Reactive oxygen species increased by ultraviolet rays in HaCaT cells (DCF-DA, flow cytometry)
Procedure: In this example, the aim was to confirm the effect of the peptide according to an embodiment on the antioxidant effect in damaged skin, by evaluating the change in the level of reactive oxygen species in skin cells increased by ultraviolet irradiation.
Specifically, NIH3T3 cells or HaCaT cells were seeded in a 6-well plate at a density of 5×10^5 cells/well and cultured for 24 hours. Next, the cells were washed once with serum-free DMEM media, and 10 μM, 50 μM or 1000 μM of the peptide consisting of the amino acid sequence of SEQ ID NO: 1 was dispensed into 1 mL of the serum-free media, and cultured in a CO2 incubator at 37° C. for 1 hour. Next, the above culture was transferred to an e-tube, mixed with 1 ml of PBS, and dispensed into a well plate. Next, using a UV irradiator (VILBER LOURMAT, Cat No.: 3102-BSU, France), 6 J/cm^2 ultraviolet rays were irradiated to NIH3T3 cells, and 15 mJ/cm^2 ultraviolet rays were irradiated to HaCaT cells. Next, the PBS in the well plate was removed, 900 μL of the culture medium in which the peptides were dispensed was added, and the plate was cultured in a CO2 incubator at 37° C. for 24 hours. The culture was then treated with DCFG-DA (2′,7′-dichlorofluorescin diacetate), wrapped in foil, and cultured in a CO2 incubator at 37° C. for 30 minutes. Next, the culture was washed twice with PBS and treated with 500 μL of 1× trypsin/EDTA to acquired cells, which were then centrifuged. After washing the centrifuged cells with PBS, FL1 fluorescence values were measured through flow cytometry (FACS, BD, USA). […]
In this example, the aim was to compare in more detail, the effect of peptides according to an embodiment on the antioxidant effect in damaged skin cells. To this end, the peptide consisting of the amino acid sequence of SEQ ID NO: 2, 3, or 4 having a sequence similar to the peptide according to an embodiment was set as a comparison group, and the level of reactive oxygen species in skin cells increased by ultraviolet irradiation of HaCaT cells was evaluated and compared in the same manner as in Example 4-1. […]

Col1a1 = Col1a1 expression by RT-PCR in NIH3T3 cells; settings: 10 μM, 50 μM or 1000 μM peptide, 24 hours, vs untreated group
Procedure: as §1
as §2, with “Meanwhile, in this example, an untreated group was used as a control group, and a group to which TGF-31 was added was used as a positive control group, the nucleotide sequences of the primers used in this example are shown in Table 2 below.” left out

GPRGDP [SEQ ID NO: 1]
expression of skin barrier factor SIRT-1 (sirtuin-1 (SIRT-1)): increases | expression of elastin (elastin; 10 μM, 50 μM or 1000 μM peptide, 24 hours, PCR, vs untreated group): increased | expression of elastin (Example 2-2) (elastin; comparison experiment, FIG. 5 and FIG. 6): increased | elastin expression effect compared to the comparison group (elastin; vs peptides of SEQ ID NO: 2, 3, or 4 (50 μM, 100 μM)): superior | reactive oxygen species reducing effect compared to the comparison group ([1]; HaCaT cells, vs peptides of SEQ ID NO: 2, 3, or 4 (50 μM, 100 μM)): superior | level of reactive oxygen species increased by ultraviolet irradiation ([1]; keratinocytes (HaCaT), 15 mJ/cm^2 UV, 10 μM, 50 μM or 1000 μM peptide, 24 hours): reduced | level of reactive oxygen species increased by ultraviolet irradiation (Example 4-2) ([1]; keratinocytes (HaCaT), comparison experiment, FIG. 11): reduced | expression of Col1a1 (Col1a1): increased
